A value given as a limit tells only on which side of the number the result lay.

In one series the target is T1, PI3K α (p110α/p85α) (Homo sapiens, UniProt P42336).
T1 construct: purchased Upstate / Millipore Corporation
Kind of series: PI 3-Kinase (human) HTRF assay, PI3K α. The settings on record: over mTOR and other PI3K isoforms; FIG. 6C. Format: biochemical.

Series [1] relates to preclinical breast cancer model. Kind of series: Preclinical breast cancer model, tumor weight / volume. The series is classed as in vivo. The settings on record: 70 mg/kg Pan-PI3K inhibitor; 60 mg/kg compound A; FIG. 9 left panel.
For another series, the system named is B cell function. Kind of series: TNP-Ficoll immunization, antibody production (FIG. 8). Format: in vivo. The settings on record: mice immunized with TNP-Ficoll, 7 days, 70 mg/kg GDC0941, 30, 60 or 120 mg/kg Compound A. On the procedure: Mice were immunized with TNP-Ficoll and treated with 1) vehicle; 2) 70 mg/kg GDC0941; 3) 30 mg/kg Compound A; 4) 60 mg/kg Compound A; or 5) 120 mg/kg Compound A for 7 days. Antibody production was measured as a percentage of control group that were treated with vehicle.

Series [2] has as its system Akt phosphorylation at serine 473. Kind of series: Western blot of Akt phosphorylation at serine 473 (FIG. 12). Format: cell-based.
The subject of series [3] is tumor cells harboring PI3K α mutations. Description: Tumor cell proliferation panel (FIG. 13). Format: cell-based.
For another series, the system named is PC3 cells. Description: Proliferation of tumor cells (CellTiter-Glo). The settings on record: read-out: cell proliferation IC50. Format: cell-based, human. On the procedure: (§1) Cells comprising one or more mutations in PI3Kα, including but not limited to breast cancer cells (e.g., MDA-MB-361, T47D, SKOV-3), and cells comprising one or more mutations in PTEN including but not limited to prostate cancer cells (e.g., PC3), are typically grown in cell growth media such as DMEM supplemented with fetal bovine serum and/or antibiotics, and grown to confluency. Cells are then treated with various concentrations of test compound for about 2 hours and subsequently lysed in cell lysis buffer. Lysates are subjected to SDS-PAGE followed by Western blot analysis to detect downstream signaling markers, including but not limited to pAKT(S473), pAKT(T308), pS6, and p4E-BP1.
Cells were seeded at 5000-10,000 per well in a 96 well flat bottom plate 90 ul growth media. Pre-diluted compound (at 10 times the final concentration) or DMSO (control) was added. The compounds were prepared such that the dose range extended from a final concentration of 30 μM to 14 nM via 3-fold serial dilutions (8 point curve). The final DMSO concentration was 0.3%. Cells were incubated for 72 hours at 37° C. in a CO2 incubator. After 72 hours, proliferation was measured using CellTiter-Glo Luminescent reagent (Promega, PR-G7573). […] Luminescence was read on a PerkinElmer EnVision plate reader. […] Inhibition % was calculated as: 1−(cells+inhibitor)−background signal)/(cells+DMSO)−background signal)×100.

The test system of series [4] is MDA-MB-361 (PI3Kα/HER2 carcinoma) tumors. Description: In vivo efficacy in xenogenic mouse model of breast cancer. On the set-up: species or system Nude mice. The settings on record: 60 mg/kg, FIG. 9 left panel. On the procedure: Blood glucose was monitored periodically following administration of treatment.
Treatment of tumors (MDA-MB-361) with compounds was discontinued on Day 30. Tumors were measured every 2-5 days.

The subject of a further series is marginal zone B cells. Kind of series: Marginal zone B cells in mouse spleen (FACS). Format: in vivo. The settings on record: 60 mg/kg, spleens harvested 2 hrs after the last dose, FIG. 9.
A short description of series [5]: Steady state blood glucose in nude mice (Example 41). The series is classed as in vivo, Mus musculus. The settings on record: mean AUC after the last dose (Day 28). Here is the method:
Blood glucose levels were measured via a tail knick using Abbott's “Freestyle Lite” Handheld Blood Glucose Monitor (Abbott Laboratories) at 15, 30, 60, 90, 120, and 1440 minutes after the last dose (Day 28).

Series [6] relates to mTORC1-dependent NRDG1 phosphorylation. Description: Western blot of NRDG1 phosphorylation (FIG. 5B). The series is classed as cell-based.
The next series has as its system Akt phosphorylation. Kind of series: Western blot of Akt phosphorylation at serine 473 and threonine 308 (FIG. 7). Format: cell-based. The settings on record: serine 473 versus threonine 308.
For the next series, the system named is pAKT in PC3 cells. Kind of series: Inhibition of PI3K pathway, pAKT Western blot. Format: cell-based, human. The settings on record: PC3 model, FIG. 7. On the procedure: as §1

T1 sequence (P42336 whole entry): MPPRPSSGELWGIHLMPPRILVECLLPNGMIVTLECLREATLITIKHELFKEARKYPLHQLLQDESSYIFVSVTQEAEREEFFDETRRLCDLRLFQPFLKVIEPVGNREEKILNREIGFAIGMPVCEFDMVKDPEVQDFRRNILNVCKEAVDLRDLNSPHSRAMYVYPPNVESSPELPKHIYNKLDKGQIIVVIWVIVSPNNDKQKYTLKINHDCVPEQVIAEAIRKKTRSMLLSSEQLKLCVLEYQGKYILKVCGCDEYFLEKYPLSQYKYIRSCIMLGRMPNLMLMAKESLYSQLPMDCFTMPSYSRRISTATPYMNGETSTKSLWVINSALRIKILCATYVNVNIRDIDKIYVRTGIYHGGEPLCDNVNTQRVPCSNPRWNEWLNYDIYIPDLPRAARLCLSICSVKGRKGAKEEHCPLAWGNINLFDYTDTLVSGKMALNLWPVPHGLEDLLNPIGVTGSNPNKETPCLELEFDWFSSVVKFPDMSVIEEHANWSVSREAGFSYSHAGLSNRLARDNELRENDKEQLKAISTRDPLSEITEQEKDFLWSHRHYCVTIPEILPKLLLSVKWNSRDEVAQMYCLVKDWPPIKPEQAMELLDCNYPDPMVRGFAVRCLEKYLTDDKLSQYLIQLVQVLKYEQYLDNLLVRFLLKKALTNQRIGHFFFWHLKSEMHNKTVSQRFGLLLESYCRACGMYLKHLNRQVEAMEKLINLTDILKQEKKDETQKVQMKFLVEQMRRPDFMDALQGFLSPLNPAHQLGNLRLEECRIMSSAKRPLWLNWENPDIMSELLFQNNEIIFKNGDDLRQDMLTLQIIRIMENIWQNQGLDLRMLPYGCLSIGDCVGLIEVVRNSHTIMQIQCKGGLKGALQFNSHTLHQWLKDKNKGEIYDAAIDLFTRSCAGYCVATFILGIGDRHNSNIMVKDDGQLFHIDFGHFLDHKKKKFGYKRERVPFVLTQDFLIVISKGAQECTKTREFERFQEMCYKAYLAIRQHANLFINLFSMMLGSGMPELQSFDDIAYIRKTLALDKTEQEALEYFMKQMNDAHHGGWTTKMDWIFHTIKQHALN
T1 sequence (P27986 whole entry partner): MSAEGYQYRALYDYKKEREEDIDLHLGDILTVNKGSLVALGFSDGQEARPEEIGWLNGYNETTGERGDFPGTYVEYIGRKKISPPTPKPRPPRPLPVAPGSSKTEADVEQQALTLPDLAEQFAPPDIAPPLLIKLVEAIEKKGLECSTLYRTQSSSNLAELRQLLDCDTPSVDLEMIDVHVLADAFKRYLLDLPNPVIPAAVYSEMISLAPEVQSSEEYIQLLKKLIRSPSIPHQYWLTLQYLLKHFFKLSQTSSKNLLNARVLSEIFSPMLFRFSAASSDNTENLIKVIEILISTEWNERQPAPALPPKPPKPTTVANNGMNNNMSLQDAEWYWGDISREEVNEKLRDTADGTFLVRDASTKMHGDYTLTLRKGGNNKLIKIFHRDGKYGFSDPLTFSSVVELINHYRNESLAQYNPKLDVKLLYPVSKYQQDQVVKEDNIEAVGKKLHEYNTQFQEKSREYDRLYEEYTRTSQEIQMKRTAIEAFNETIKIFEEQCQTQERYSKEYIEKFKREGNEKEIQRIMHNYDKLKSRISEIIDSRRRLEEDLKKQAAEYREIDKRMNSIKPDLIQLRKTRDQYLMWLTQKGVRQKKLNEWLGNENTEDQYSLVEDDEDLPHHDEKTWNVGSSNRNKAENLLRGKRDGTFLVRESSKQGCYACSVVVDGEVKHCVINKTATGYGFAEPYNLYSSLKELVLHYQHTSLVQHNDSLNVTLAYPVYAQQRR
Procedure for marginal zone B cells: The effect of the compounds on the localization/viability of marginal zone B cells in the spleen is also evaluated at the conclusion of treatment.
Spleens were harvested 2 hrs after the last dose, processed and stained with appropriate antibodies (marginal zone B cell: B220+;CD23−;CD21hi) and analyzed for staining on GUAVA EasyCyte FACS machine using Guava Cytosoft 5.2 software.

For `Nc1nc2cc(-c3ccc4ncc(C(=O)N5CCOCC5)n4c3)ccc2o1` [Compound A], the “specificity in inhibiting PI3K α” value at PI3K α (p110α/p85α) is “specificity of Compound A in inhibiting PI3K α over mTOR and other PI3K isoforms”. The “tumor weight of a breast cancer model” value in series [1] is reported as “reduction in tumor weight”. For the same compound, the “B cell function in vivo (antibody production as percentage of vehicle control)” value with B cell function is recorded as “not”. Moreover, the “Akt phosphorylation at serine 473” value in series [2] (PTEN-mutant cell line, FIG. 12B) is on record as “reduced inhibition of Akt phosphorylation at serine 473”; in series [2] (western blot, FIG. 12A), “inhibition of Akt phosphorylation at serine 473”. Also, the “proliferation of tumor cells” value in series [3] is recorded as “preferentially inhibits proliferation of tumor cells harboring PI3K α mutations”. Moreover, the IC50 in the series on PC3 cells was over 10 µM. Moreover, the tumor weight result in series [4] is on record as “reduction in tumor weight”. In addition, the “localization/viability of marginal zone B cells” value in the series with marginal zone B cells is given as “does not affect”. The “Blood Glucose Fold Over Vehicle Control” value stood at 0.97 fold in [5] (60 mg/kg QD), 1.02 fold in series [5] (70 mg/kg QD 3on/4off), 1.26 fold in series [5] (140 mg/kg QD 3on/4off) and 1.16 fold in series [5] (210 mg/kg QW).

As to `CC(C)n1nc(-c2ccc3oc(N)nc3c2)c2c(N)ncnc21` [Compound B], the “sensitivity of mTORC1-dependent NRDG1 phosphorylation” value in [6] is given as “sensitivity”. For the same compound, the “inhibition of Akt phosphorylation” value in the series on Akt phosphorylation was “differential inhibition of Akt phosphorylation at serine 473 over threonine 308”. Besides, the “inhibition of Akt phosphorylation, serine 473 vs threonine 308” value in the series with pAKT in PC3 cells is on record as “differential inhibition of Akt phosphorylation at serine 473 over threonine 308”.

These data come from patent US20150087627A1, “COMBINATION OF KINASE INHIBITORS AND USES THEREOF” (Intellikine LLC, priority 2011, published 2015).
